21 compounds from patent publication US20260317320A1, “C5AR1 ANTAGONISTS AND USES THEREOF” (Vanqua Bio, Inc., priority 2022, published 2026) can be followed below.

Each structure is given as a SMILES string.

The first assay has as its target T1, complement C5a receptor 1 (C5aR1) (Homo sapiens, UniProt P21730).
T1 construct: β-galactosidase fragment (PathHunter enzyme complementation); host or cells: CHO-K1 (PathHunter CHO-K1 C5aR1 β-arrestin cell line)
T1 sequence (P21730 1-350): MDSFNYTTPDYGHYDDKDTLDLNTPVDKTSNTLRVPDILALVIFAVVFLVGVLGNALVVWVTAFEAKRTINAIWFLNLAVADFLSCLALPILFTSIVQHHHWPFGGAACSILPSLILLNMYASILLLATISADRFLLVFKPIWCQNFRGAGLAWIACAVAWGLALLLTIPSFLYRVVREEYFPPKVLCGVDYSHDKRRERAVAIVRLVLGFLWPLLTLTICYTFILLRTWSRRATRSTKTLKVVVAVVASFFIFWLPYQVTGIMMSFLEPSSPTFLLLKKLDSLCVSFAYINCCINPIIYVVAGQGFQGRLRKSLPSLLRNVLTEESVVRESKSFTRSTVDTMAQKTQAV
Put plainly: β-arrestin recruitment via C5aR1 activation in live CHO-K1 cells (PathHunter), antagonist mode. The class given is cell-based. Particulars: antagonist mode; recombinant hC5a (EC90) as competing natural agonist; live CHO-K1 cells; read-out: [Antagonist] B-arrestin2 recruitment: Average IC50; call rule not given here. On the procedure: (§1) Exemplary compounds were evaluated for classical GPCR β-arrestin recruitment via complement C5a receptor 1 (C5aR1) activation in live CHO-K1 cells. This cell line expresses two fragments of the […] protein coupled to β-arrestin and C5aR1. Complementation of the two fragments allows for the assessment of both C5aR1 agonism and antagonism. Recombinant hC5a (EC90) was used as the competing natural agonist against disclosed compounds (more information on the expanded protocol and cell line can be found on the manufacturer's website: PathHunter® CHO-K1 C5aR1 β-arrestin cell line, DiscoverX, Catalog No. 93-0557C2). […] IC50 ranges: A: IC50≤500 nM; B: 500 nM<IC50≤5 uM; C: 5 uM<IC50≤100 uM; D: IC50>100 uM.
(Activated receptors often draw arrestin, which recruitment assays turn into a signal.)
Usually IC50 stands for the midpoint of a concentration-inhibition curve. As for `Cc1cnc2cc([C@H]3CC[C@H](c4c(C)cccc4F)CC3)c(=O)n(Cc3ncccc3C(F)(F)F)c2n1` [121a, 7-(trans-4-(2-Fluoro-6-methylphenyl)cyclohexyl)-3-methyl-5-((3-(trifluoromethyl)pyridin-2-yl)methyl)pyrido[2,3-b]pyrazin-6(5H)-one], the IC50 is less than 500 nM. Still for that read-out and setting: to `Cc1cnc2cc(C3CCN(c4c(C)cccc4F)CC3)c(=O)n(Cc3ccccc3OC(F)(F)F)c2n1` [compound 78, 7-(1-(2-Fluoro-6-methylphenyl)piperidin-4-yl)-3-methyl-5-(2-(trifluoromethoxy)benzyl)pyrido[2,3-b]pyrazin-6(5H)-one] belongs 500 to 5000 nM.

As to `Cc1cccc(F)c1N1CCC(c2cc3nccnc3n(Cc3nccnc3C(F)F)c2=O)CC1` [compound 122, 5-((3-(Difluoromethyl)pyrazin-2-yl)methyl)-7-(1-(2-fluoro-6-methylphenyl)piperidin-4-yl)pyrido[2,3-b]pyrazin-6(5H)-one], the IC50 is less than 500 nM. For `Cc1c(C2CCN(c3ccccc3C(F)(F)F)CC2)c(=O)n(Cc2nccnc2F)c2nccnc12` [compound 77, 5-((3-Fluoropyrazin-2-yl)methyl)-8-methyl-7-(1-(2-(trifluoromethyl)phenyl)piperidin-4-yl)pyrido[2,3-b]pyrazin-6(5H)-one], the IC50 is 500 to 5000 nM.

As to `Cc1c(C2CCN(c3ccccc3C(F)(F)F)CC2)c(=O)n(Cc2ncccc2F)c2nccnc12` [compound 83, 5-((3-Fluoropyridin-2-yl)methyl)-8-methyl-7-(1-(2-(trifluoromethyl)phenyl)piperidin-4-yl)pyrido[2,3-b]pyrazin-6(5H)-one], the IC50 is less than 500 nM.

In the case of `Cc1cnc2cc(C3CCN(c4cncnc4C)CC3)c(=O)n(Cc3ncccc3C(F)(F)F)c2n1` [compound 114, 3-Methyl-7-(1-(4-methylpyrimidin-5-yl)piperidin-4-yl)-5-((3-(trifluoromethyl)pyridin-2-yl)methyl)pyrido[2,3-b]pyrazin-6(5H)-one], the IC50 lay in the range of 5000 to 100000 nM. Turning to `Cc1cnc2cc(C3CCN(c4nnccc4C)CC3)c(=O)n(Cc3ncccc3C(F)(F)F)c2n1` [compound 115, 3-Methyl-7-(1-(4-methylpyridazin-3-yl)piperidin-4-yl)-5-((3-(trifluoromethyl)pyridin-2-yl)methyl)pyrido[2,3-b]pyrazin-6(5H)-one], the half-inhibitory concentration (IC50) was in the range of 500 to 5000 nM. As for `Cc1cccc(F)c1N1CCC(c2cc3nccnc3n(Cc3cncnc3C(F)(F)F)c2=O)CC1` [compound 116, 7-(1-(2-Fluoro-6-methylphenyl)piperidin-4-yl)-5-((4-(trifluoromethyl)pyrimidin-5-yl)methyl)pyrido[2,3-b]pyrazin-6(5H)-one], the half-maximal inhibitory concentration (IC50) was in the range of 500 to 5000 nM. For `Cc1cnc2cc(C3CCN(c4c(C)cccc4F)CC3)c(=O)n(Cc3ccccc3OC(F)F)c2n1` [compound 74, 5-(2-(Difluoromethoxy)benzyl)-7-(1-(2-fluoro-6-methylphenyl)piperidin-4-yl)-3-methylpyrido[2,3-b]pyrazin-6(5H)-one], the IC50 was 500 to 5000 nM. Take `COc1cnc2cc(C3CCN(c4c(C)cccc4F)CC3)c(=O)n(Cc3nccnc3C)c2n1` [compound 112, 7-(1-(2-Fluoro-6-methylphenyl)piperidin-4-yl)-3-methoxy-5-((3-methylpyrazin-2-yl)methyl)pyrido[2,3-b]pyrazin-6(5H)-one]: the half-maximal inhibitory concentration (IC50) lay within 5000 to 100000 nM. Regarding `Cc1cnc2c(C)c(C3CCN(c4c(C)cccc4F)CC3)c(=O)n(Cc3ncccc3C(F)(F)F)c2n1` [compound 75, 7-(1-(2-Fluoro-6-methylphenyl)piperidin-4-yl)-3,8-dimethyl-5-((3-(trifluoromethyl)pyridin-2-yl)methyl)pyrido[2,3-b]pyrazin-6(5H)-one], the concentration for half-maximal inhibition (IC50) was in the range of 500 to 5000 nM.

In the case of `COc1ccnc(F)c1N1CCC(c2cc3nccnc3n(Cc3ncccc3C(F)(F)F)c2=O)CC1` [compound 79, 7-(1-(2-Fluoro-4-methoxypyridin-3-yl)piperidin-4-yl)-5-((3-(trifluoromethyl)pyridin-2-yl)methyl)pyrido[2,3-b]pyrazin-6(5H)-one], the 50% inhibitory concentration (IC50) was in the range of 500 to 5000 nM. As for `Cc1ccc2cc(C3CCN(c4c(C)cccc4F)CC3)c(=O)n(Cc3ncccc3C(F)(F)F)c2n1` [compound 94, 3-(1-(2-Fluoro-6-methylphenyl)piperidin-4-yl)-7-methyl-1-((3-(trifluoromethyl)pyridin-2-yl)methyl)-1,8-naphthyridin-2(1H)-one], the half-maximal inhibitory concentration (IC50) is less than 500 nM. `COc1ccnc(F)c1N1CCC(c2cc3ncc(C)nc3n(Cc3ncccc3C(F)(F)F)c2=O)CC1` [compound 85, 7-(1-(2-Fluoro-4-methoxypyridin-3-yl)piperidin-4-yl)-3-methyl-5-((3-(trifluoromethyl)pyridin-2-yl)methyl)pyrido[2,3-b]pyrazin-6(5H)-one]: the IC50 is less than 500 nM. In the case of `Cc1cnc2cc(C3CCN(c4c(C)cccc4F)CC3)c(=O)n(Cc3nccnc3C)c2n1` [compound 106, 7-(1-(2-Fluoro-6-methylphenyl)piperidin-4-yl)-3-methyl-5-((3-methylpyrazin-2-yl)methyl)pyrido[2,3-b]pyrazin-6(5H)-one], the half-maximal inhibitory concentration (IC50) is less than 500 nM. Same read-out and setting: to `Cc1cccc(F)c1N1CCN(c2cc3nccnc3n(Cc3ncccc3C(F)(F)F)c2=O)CC1` [compound 96, 7-(4-(2-Fluoro-6-methylphenyl)piperazin-1-yl)-5-((3-(trifluoromethyl)pyridin-2-yl)methyl)pyrido[2,3-b]pyrazin-6(5H)-one] belongs less than 500 nM; to `Cc1ncc2cc(C3CCN(c4c(C)cccc4F)CC3)c(=O)n(Cc3ncccc3C(F)(F)F)c2n1` [compound 81, 6-(1-(2-fluoro-6-methylphenyl)piperidin-4-yl)-2-methyl-8-((3-(trifluoromethyl)pyridin-2-yl)methyl)pyrido[2,3-d]pyrimidin-7(8H)-one], less than 500 nM. For `Cc1ncc2cc(N3CCN(c4c(C)cccc4F)CC3)c(=O)n(Cc3ncccc3OC(F)F)c2n1` [compound 117, 8-((3-(Difluoromethoxy)pyridin-2-yl)methyl)-6-(4-(2-fluoro-6-methylphenyl)piperazin-1-yl)-2-methylpyrido[2,3-d]pyrimidin-7(8H)-one], the IC50 lay within 500 to 5000 nM. As for `Cc1cnc2cc(N3CCC(c4c(C)cccc4F)CC3)c(=O)n(Cc3nccnc3C(F)(F)F)c2n1` [compound 95, 7-(4-(2-Fluoro-6-methylphenyl)piperidin-1-yl)-3-methyl-5-((3-(trifluoromethyl)pyrazin-2-yl)methyl)pyrido[2,3-b]pyrazin-6(5H)-one], the half-inhibitory concentration (IC50) is 500 to 5000 nM. Same read-out and setting: to `Cc1cnc2cc([C@H]3CC[C@H](c4c(C)cccc4F)CC3)c(=O)n(Cc3nccnc3C(F)(F)F)c2n1` [99b, 7-(trans-4-(2-Fluoro-6-methylphenyl)cyclohexyl)-3-methyl-5-((3-(trifluoromethyl)pyrazin-2-yl)methyl)pyrido[2,3-b]pyrazin-6(5H)-one] belongs less than 500 nM.

A further assay deals with T1, complement C5a receptor 1 (C5aR1). Nature of the assay: β-arrestin recruitment via C5aR1 activation in live CHO-K1 cells (PathHunter), agonist mode. Type of assay: cell-based.
Settings: not given
As for the experimental part:
as §1
For the compound `Cc1ccc2cc([C@H]3CC[C@H](c4c(C)cccc4F)CC3)c(=O)n(Cc3nccnc3C(C)(F)F)c2n1` [compound 269, 1-{[3-(1,1-Difluoroethyl)-2-pyrazinyl]methyl}-7-methyl-3-[(1r,4r)-4-(2-fluoro-6-tolyl)cyclohexyl]-1,8-diaza-2(1H)-naphthalenone], the “[Agonist] B-arrestin2 recruitment: Average EC50 (nM)” value is given as “Non-Active”.
